Biological target: T1, Beta-3 Adrenergic Receptor (Homo sapiens, UniProt P13945)
T1 construct: expressed in transfected cells; host or cells: CHO-K1
Experiment: Homogeneous Time-Resolved Fluorescence (HTRF) cAMP antagonist assay
Assay type: cell-based
Conditions: Beta-3 Adrenergic Receptor IC50 Values, isoproterenol at EC90
Procedure: Example 1: IC50 Determinations in Homogeneous Time-Resolved Fluorescence (HTRF®) cAMP Antagonist Assays
HTRF cAMP assays were performed according to manufacturer's instructions (Cisbio, cAMP Dynamic 2 Assay Kit; #62AM4PEJ). CHO-K1 cells stably expressing recombinant receptor were harvested and suspended in warm PBS to make a 300,000 cells/mL stock. This cell suspension was dispensed into 384 well assay plates (PerkinElmer ProxiPlate #6008280) at 5 μL per well (1500 cells/well) along with a cAMP standard curve.
Compounds were dissolved and serially diluted (5-fold) in DMSO to generate a 10-point dose response stock. […] After a brief incubation, 2.5 μL of isoproterenol stock, prepared at a concentration 4 times its EC90 at the receptor of interest, was added to the wells. The EC90 for isoproterenol, a beta-adrenergic agonist, was determined in separate experiments using standard methods to measure agonist potencies.
Following a 1-hour incubation at room temperature, 5 μL of cAMP-D2 Reagent diluted in Lysis Buffer was added to each well followed by 5 μL of Cryptate Reagent. Plates were further incubated at room temperature for 1 hour prior to reading. Time resolved fluorescence measurements were collected on a suitable, HTRF-capable plate reader.
Counts from the plate reader were fit to the cAMP standard curve on the assay plate in order to determine cAMP concentrations in each well, and these values were used to construct dose-response curves to obtain IC50 values.

[1] = table of B compounds, CHO-K1 cells

T1 sequence (P13945 whole entry, species assumed): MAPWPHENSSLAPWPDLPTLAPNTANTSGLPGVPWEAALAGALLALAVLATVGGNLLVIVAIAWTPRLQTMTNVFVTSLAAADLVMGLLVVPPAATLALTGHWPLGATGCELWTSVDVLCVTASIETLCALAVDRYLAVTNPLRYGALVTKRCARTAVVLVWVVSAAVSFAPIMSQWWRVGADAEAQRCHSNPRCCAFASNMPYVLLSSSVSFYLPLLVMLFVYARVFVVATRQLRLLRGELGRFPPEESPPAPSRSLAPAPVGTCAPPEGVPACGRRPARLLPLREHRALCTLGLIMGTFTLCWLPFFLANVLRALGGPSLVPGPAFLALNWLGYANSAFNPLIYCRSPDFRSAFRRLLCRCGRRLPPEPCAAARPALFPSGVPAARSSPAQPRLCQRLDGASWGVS

Row | IC50 [1] [µM] | SMILES | further results
1 |  | O=S(=O)(c1cccc(OC[C@@H](O)CN[C@H]2COC3(CCN(S(=O)(=O)c4cnc5cc[nH]c5c4)CC3)C2)c1)C1CC1 [Compound A309, (S)-1-((R)-8-(1H-pyrrolo[3,2-b]pyridin-6-ylsulfonyl)-1-oxa-8-azaspiro[4.5]decan-3-ylamino)-3-(3-(cyclopropylsulfonyl)phenoxy)propan-2-ol] | IC50 (table of A compounds, CHO-K1 cells stably expressing recombinant receptor): 0.007 µM
2 | 0.0254 | CNS(=O)(=O)c1cccc(OC[C@@H](O)CN[C@H]2COC3(CCN(S(=O)(=O)c4cncc(-c5ccc(CN)cc5)c4)CC3)C2)c1 [Compound B375, 3-((S)-3-((R)-8-(5-(4-(aminomethyl)phenyl)pyridin-3-ylsulfonyl)-1-oxa-8-azaspiro[4.5]decan-3-ylamino)-2-hydroxypropoxy)-N-methylbenzenesulfonamide] | 
3 | 0.472 | CN1CCOc2ncc(S(=O)(=O)N3CCC4(CC3)C[C@@H](NC[C@H](O)COc3cccc(S(=O)(=O)N[C@@H]5CCC[C@@H]5O)c3)CO4)cc21 [Compound B437, 3-((S)-2-hydroxy-3-((R)-8-(1-methyl-2,3-dihydro-1H-pyrido[2,3-b][1,4]oxazin-7-ylsulfonyl)-1-oxa-8-azaspiro[4.5]decan-3-ylamino)propoxy)-N-((1R,2S)-2-hydroxycyclopentyl)benzenesulfonamide] | 
4 |  | CNS(=O)(=O)c1cccc(OC[C@@H](O)CN[C@H]2COC3(CCN(c4nccc(C(=O)O)n4)CC3)C2)c1 [Compound B582, 2-((R)-3-((S)-2-hydroxy-3-(3-(N-methylsulfamoyl)phenoxy)propylamino)-1-oxa-8-azaspiro[4.5]decan-8-yl)pyrimidine-4-carboxylic acid] | IC50 (table of B compounds, cells in μM, CHO-K1 cells): ≥ 100 µM
